Converted amounts (≈) assume the structure as drawn. Like-named read-outs stand apart in the source and are kept apart here.
Tests used:
Lactobacillus plantarum = assay: Minimal Inhibitory Concentration (MIC), two-fold dilution series in 96 well microplate, antimicrobial used alone; type: cell-based; settings: for MIC: Lactiplantibacillus plantarum; for Propionic Acid MIC (QB) used alone: sodium propionate per text
Source text: While there are various methods known to individuals skilled in the art for measuring levels of antimicrobial activity, in the following examples the endpoint used is known as the Minimal Inhibitory Concentration, or MIC. This is the lowest concentration of a substance or substances which can achieve complete inhibition of growth.
In order to determine the Minimal Inhibitory Concentration, a two-fold dilution series of the antimicrobial is constructed with the dilutions being made in growth media. The dilutions are made in a 96 well microplate such that each well has a final volume of 280 μl of media and antimicrobial. The first well has, for example, a concentration of 1000 μM antimicrobial, the second 500 μM, the third 250 μM, and so forth, with the 12th and final well in the row having no antimicrobial at all and serving as a positive growth control. After the dilution series is constructed the wells receive an inoculum of microbe suspended in growth media such that the final concentration of microbes in the well is ˜5×10^5 cfu/ml. In these examples the test microbe used is Lactobacillus plantarum. The cultures are incubated at 37° C. for 18-24 hours, and the wells scored as positive or negative for growth based on a visual examination for turbid wells, with turbidity being an indicator of growth.

Weisella confusa = settings: background statement; cited from earlier work
fermentation = settings: background statement; cited from earlier work

In the case of `O=C(O)CC(O)(CC(=O)O)C(=O)O` [Citric Acid, citric acid], the MIC (Lactobacillus plantarum; pH 5, Example 2, read-out: Citric Acid MIC (QA) used alone) is reported as 25 mg/mL (≈ 130 mM), the MIC (Lactobacillus plantarum; pH 5, Example 4, read-out: Citric acid MIC (QA) used alone) is reported as 25 mg/mL (≈ 130 mM) and the MIC (Lactobacillus plantarum; pH 6, Example 1, 37° C., 18-24 hours, read-out: Citric Acid MIC (QA) used alone) is reported as 100 mg/mL (≈ 520 mM). The “Citric Acid MIC (QA) used alone” value (Lactobacillus plantarum; pH 5, Example 2) was 25000 ppm, the “Citric Acid MIC (QA) used alone” value (Lactobacillus plantarum; pH 5, Example 4) was 25000 ppm and the “Citric Acid MIC (QA) used alone” value (Lactobacillus plantarum; pH 6, Example 1, 37° C., 18-24 hours) was 100000 ppm. The “Citric Acid MIC (QA) used alone” value (Lactobacillus plantarum; pH 6, Example 3) was 100000 ppm and the “Citric Acid MIC (QA) used alone” value (Lactobacillus plantarum; pH 6, Example 3, listed as citric acid) was 100,000 ppm.
For `O=C([O-])c1ccccc1.[K+]` [Potassium Benzoate, potassium benzoate], the “Potassium benzoate MIC (QB) used alone” value (Lactobacillus plantarum; pH 5, Example 4, listed as Potassium benzoate) was 3125 ppm, the “Potassium benzoate MIC (QB) used alone” value (Lactobacillus plantarum; pH 5, Example 4, listed as potassium benzoate) was 3,125 ppm and the “Potassium benzoate MIC (QB) used alone” value (Lactobacillus plantarum; pH 6, Example 3) was 100000 ppm. For the same molecule, the “Potassium benzoate MIC (QB) used alone” value (Lactobacillus plantarum; pH 6, Example 3, listed as potassium benzoate) was 100,000 ppm.
For `CCC(=O)[O-].[Na+]` [Sodium Propionate, sodium propionate], the “Sodium Propionate MIC (QB) used alone” value (Lactobacillus plantarum; pH 5, Example 2) was 100000 ppm, the “Sodium Propionate MIC (QB) used alone” value (Lactobacillus plantarum; pH 5, Example 2, listed as sodium propionate) was 100,000 ppm and the “Propionic Acid MIC (QB) used alone” value (Lactobacillus plantarum; pH 6, Example 1) was 100,000 ppm. The “Propionic Acid MIC (QB) used alone” value (Lactobacillus plantarum; pH 6, Example 1, listed as Propionic Acid) was 100000 ppm.
In the case of Virginiamycin, the “concentration required to inhibit growth of Weisella confusa” value (Weisella confusa) is listed as “over 25 mg/L” and the “concentration that will suppress fermentation” value (fermentation) is listed as “over 2 mg/L”.
